Laboratory results as given in patent publication US7655665B2, “Nitromethylene derivatives and their use” (East China University of Science and Technology, priority 2004, dated 2010).

Experiments:
[1] = tested on: Aphis craccivoral; assay: Insecticidal activity against Aphis craccivoral by immersing (dipping aphids on bean sprout); type: in vivo; settings: 500 ppm; immersing (dipped 5 seconds); counted after 24 hours; 23° C.
Procedure: (§1) Test on the insecticidal activity of Compound Nos. 1-227
Aphis, which belongs to Homoptera and has a piercing-sucking mouthpart, is a common insect for agricultural plant. Aphis craccivoral was tested by the way of immersing.
Test method: exactly weighed various samples were independently added to N,N-dimethylformamide to form a 10 g/L stock solution. The mixture was diluted with 0.2 mL/L aqueous Triton X-100 solution to a concentration of 500 ug/mL. After stably sucking on bean sprout, the adult aphis without wings together with bean sprout was dipped into 500 ug/mL dilution, taken out after 5 seconds, and the excess dilution was sucked out with bibulous paper and the adult aphis without wings was incubated in clean vessel at a constant temperature of 23° C. Each concentration was repeated for 3 times and the control group contained 0.2 mL/L aqueous Triton X-100 solution. The number of killed aphis was counted after 24 hours to calculate the mortality.

[2] = tested on: Nilaparvata lugens; assay: Insecticidal activity against Nilaparvata lugens (planthopper) by spraying; type: in vivo; settings: 500 ppm; spraying 2 ml; counted after 24 hours
Procedure: as §1
Planthopper, which belongs to Homoptera and has a piercing-sucking mouthpart, is a common insect for agricultural plant. Nilaparvata lugens was tested by the way of spraying.
Test method: the test compound was exactly formulated into a solution having a certain concentration and clean water was used as a blank control. Each process was repeated for 3 tumblers (3 times). 2 ml of solution was sprayed uniformly to each tumbler by a mini manual sprayer. 10 Nilaparvata lugens were introduced to every sink 6 hours before spraying. Three series of experiments were conducted. The number of killed Nilaparvata lugens was counted after 24 hours to calculate the mortality.

Compound | mortality (%) (500 ppm) Aphis [1] | mortality (%) (500 ppm) Nilaparvata lugens [2]
CCC(C)OC1CCC([N+](=O)[O-])=C2N(CC3CCOC3)CCN21 (centres unmarked) [Compound 59] | 2% | 3%
CC(C)CCOC1CCC([N+](=O)[O-])=C2N(CC3CCOC3)CCN21 (centres unmarked) [Compound 60] | 3% | 5%
CCCC(C)OC1CCC([N+](=O)[O-])=C2N(CC3CCOC3)CCN21 (centres unmarked) [Compound 61] | 56% | 89%
CC(C)(C)COC1CCC([N+](=O)[O-])=C2N(CC3CCOC3)CCN21 (centres unmarked) [Compound 62] | 12% | 23%
O=[N+]([O-])C1=C2N(CC3CCOC3)CCN2C(OC2CCCCC2)CC1 (centres unmarked) [Compound 63] | 2% | 6%
C=CCOC1CCC([N+](=O)[O-])=C2N(CC3CCOC3)CCN21 (centres unmarked) [Compound 64] | 37% | 46%
C#CCOC1CCC([N+](=O)[O-])=C2N(CC3CCOC3)CCN21 (centres unmarked) [Compound 65] | 47% | 34%
COCCOC1CCC([N+](=O)[O-])=C2N(CC3CCOC3)CCN21 (centres unmarked) [Compound 66] | 100% | 100%
CCOCCOC1CCC([N+](=O)[O-])=C2N(CC3CCOC3)CCN21 (centres unmarked) [Compound 67] | 100% | 100%
CC1CC(O)N2CCN(CC3CCOC3)C2=C1[N+](=O)[O-] (centres unmarked) [Compound 68] | 2% | 7%
CC1CC(O)N2CCN(Cc3ccc(Cl)nc3)C2=C1[N+](=O)[O-] (centres unmarked) [Compound 69] | 45% | 56%
CC1CC(O)N2CCN(Cc3cnc(Cl)s3)C2=C1[N+](=O)[O-] (centres unmarked) [Compound 70] | 33% | 12%
O=[N+]([O-])C1=C2N(Cc3ccc(Cl)nc3)CCCN2C(O)CC1 (centres unmarked) [Compound 71] | 6% | 0%
COC1CCC([N+](=O)[O-])=C2N(Cc3ccc(Cl)nc3)CCCN21 (centres unmarked) [Compound 72] | 35% | 100%
CCOC1CCC([N+](=O)[O-])=C2N(Cc3ccc(Cl)nc3)CCCN21 (centres unmarked) [Compound 73] | 34% | 56%
O=[N+]([O-])C1=C2N(Cc3ccc(Cl)nc3)CCCN2C(OCCCl)CC1 (centres unmarked) [Compound 74] | 12% | 13%
O=[N+]([O-])C1=C2N(Cc3ccc(Cl)nc3)CCCN2C(OCC(F)(F)F)CC1 (centres unmarked) [Compound 75] | 88% | 100%
CCCOC1CCC([N+](=O)[O-])=C2N(Cc3ccc(Cl)nc3)CCCN21 (centres unmarked) [Compound 76] | 100% | 100%
CC(C)OC1CCC([N+](=O)[O-])=C2N(Cc3ccc(Cl)nc3)CCCN21 (centres unmarked) [Compound 77] | 56% | 78%
O=[N+]([O-])C1=C2N(Cc3ccc(Cl)nc3)CCCN2C(OC(C(F)(F)F)C(F)(F)F)CC1 (centres unmarked) [Compound 78] | 68% | 51%
CCCCOC1CCC([N+](=O)[O-])=C2N(Cc3ccc(Cl)nc3)CCCN21 (centres unmarked) [Compound 79] | 52% | 61%
CC(C)COC1CCC([N+](=O)[O-])=C2N(Cc3ccc(Cl)nc3)CCCN21 (centres unmarked) [Compound 80] | 23% | 34%
CCC(C)OC1CCC([N+](=O)[O-])=C2N(Cc3ccc(Cl)nc3)CCCN21 (centres unmarked) [Compound 81] | 12% | 8%

Compound | mortality (%) (500 ppm) Aphis [1] | mortality (%) (500 ppm) Nilaparvata lugens [2]
CC(C)(C)OC1CCC([N+](=O)[O-])=C2N(Cc3ccc(Cl)nc3)CCCN21 (centres unmarked) [Compound 82] | 12% | 34%
COCCOC1CCC([N+](=O)[O-])=C2N(Cc3ccc(Cl)nc3)CCCN21 (centres unmarked) [Compound 83] | 38% | 26%
CCOCCOC1CCC([N+](=O)[O-])=C2N(Cc3ccc(Cl)nc3)CCCN21 (centres unmarked) [Compound 84] | 26% | 39%
O=[N+]([O-])C1=C2N(Cc3cnc(Cl)s3)CCCN2C(O)CC1 (centres unmarked) [Compound 85] | 12% | 23%
COC1CCC([N+](=O)[O-])=C2N(Cc3cnc(Cl)s3)CCCN21 (centres unmarked) [Compound 86] | 100% | 100%
CCOC1CCC([N+](=O)[O-])=C2N(Cc3cnc(Cl)s3)CCCN21 (centres unmarked) [Compound 87] | 100% | 100%
O=[N+]([O-])C1=C2N(Cc3cnc(Cl)s3)CCCN2C(OCCCl)CC1 (centres unmarked) [Compound 88] | 23% | 34%
O=[N+]([O-])C1=C2N(Cc3cnc(Cl)s3)CCCN2C(OCC(F)(F)F)CC1 (centres unmarked) [Compound 89] | 100% | 100%
CCCOC1CCC([N+](=O)[O-])=C2N(Cc3cnc(Cl)s3)CCCN21 (centres unmarked) [Compound 90] | 34% | 51%
CC(C)OC1CCC([N+](=O)[O-])=C2N(Cc3cnc(Cl)s3)CCCN21 (centres unmarked) [Compound 91] | 69% | 71%
O=[N+]([O-])C1=C2N(Cc3cnc(Cl)s3)CCCN2C(OC(C(F)(F)F)C(F)(F)F)CC1 (centres unmarked) [Compound 92] | 6% | 5%
CCCCOC1CCC([N+](=O)[O-])=C2N(Cc3cnc(Cl)s3)CCCN21 (centres unmarked) [Compound 93] | 7% | 8%
CC(C)COC1CCC([N+](=O)[O-])=C2N(Cc3cnc(Cl)s3)CCCN21 (centres unmarked) [Compound 94] | 8% | 3%
CCC(C)OC1CCC([N+](=O)[O-])=C2N(Cc3cnc(Cl)s3)CCCN21 (centres unmarked) [Compound 95] | 4% | 8%
CC(C)(C)OC1CCC([N+](=O)[O-])=C2N(Cc3cnc(Cl)s3)CCCN21 (centres unmarked) [Compound 96] | 80% | 100%
COCCOC1CCC([N+](=O)[O-])=C2N(Cc3cnc(Cl)s3)CCCN21 (centres unmarked) [Compound 97] | 78% | 100%
CCOCCOC1CCC([N+](=O)[O-])=C2N(Cc3cnc(Cl)s3)CCCN21 (centres unmarked) [Compound 98] | 4% | 7%
O=[N+]([O-])C1=C2N(CC3CCOC3)CCCN2C(O)CC1 (centres unmarked) [Compound 99] | 6% | 7%
COC1CCC([N+](=O)[O-])=C2N(CC3CCOC3)CCCN21 (centres unmarked) [Compound 100] | 3% | 8%
CCOC1CCC([N+](=O)[O-])=C2N(CC3CCOC3)CCCN21 (centres unmarked) [Compound 101] | 76% | 90%
O=[N+]([O-])C1=C2N(CC3CCOC3)CCCN2C(OCCCl)CC1 (centres unmarked) [Compound 102] | 0% | 89%
O=[N+]([O-])C1=C2N(CC3CCOC3)CCCN2C(OCC(F)(F)F)CC1 (centres unmarked) [Compound 103] | 6% | 100%
CCCOC1CCC([N+](=O)[O-])=C2N(CC3CCOC3)CCCN21 (centres unmarked) [Compound 104] | 3% | 24%
